Laboratory results taken from US10781470B2, “Diagnosis and treatment of incipient diabetes” (priority 2015, dated 2020).

System: stool alkaline phosphatase (AP)
Test: Stool alkaline phosphatase assay in presence of AP isoform inhibitors
Conditions: stool supernatant; for inhibition of the AP activity in the stool: inhibitor 10 mM, pNPP substrate
Experimental: Homogenization of stool: The supernatant of a homogenized stool suspension was used for IAP assay. A small amount of stool (milligrams) was measured and then the ‘stool dilution buffer’ (10 mM (millimolar) Tris-HCl, pH 8.0, 1 mM magnesium chloride, 10 μM (micromolar) zinc chloride) at a defined ratio was added. Usually, 50 μl (microliter) of stool dilution buffer was added to 1 mg of stool. The sample was vigorously vortexed to prepare a homogenized stool suspension, which was then centrifuged at 10,000×g for 20 min, and the supernatant containing IAP was collected and assayed for IAP concentration.
Alkaline Phosphatase Assay. The stool supernatant was assayed for alkaline phosphatase (AP) following an established protocol using the automatic biochemistry analyzer mentioned above (Nanjing, Jiangsu, China). In brief, 20 of supernatant was added to 1 ml of enzyme assay buffer (1.25 M diethanolamine (DEA) buffer, pH 10.2, 0.6 mM magnesium chloride) containing 10 mM p-nitrophenyl phosphate (pNPP), and the reaction mixture was incubated for one min at 37° C. followed by measuring the AP concentration by the analyzer pre-calibrated with AP standards. To determine the major isoform among stool APs, prior to assaying for AP activity an aliquot of stool sample was treated for 10 min with L-phenylalanine (L-Phe, 10 mM final conc.), a specific inhibitor of LAP, and another aliquot with L-homoarginine (L-Arg, 10 final conc.), an inhibitor of tissue non-specific alkaline phosphatase (TNAP). Each aliquot treated with an inhibitor was then mixed with the reaction buffer containing an equal concentration (10 mM) of the respective inhibitor, and assayed for AP activity using the analyzer. […] All AP assays were performed by a single laboratory technologist who was blinded to the diagnoses of participants. […]
Stool samples of non-diabetic healthy controls and T2DM patients were homogenized in a stool dilution buffer followed by centrifuging and collection of supernatant. […] Statistics: Values are expressed as mean+/−SEM. […]

SMILES | inhibitory effect on the stool AP activity (either group (healthy controls and T2DM patients)) | inhibition of the AP activity in the stool (total diabetic (T2DM) population) | inhibition of the AP activity in the stool (total healthy population)
N=C(N)NCCCC[C@H](N)C(=O)O [L-Arg, L-homoarginine] | no inhibitory effect | – | –
N[C@@H](Cc1ccccc1)C(=O)O [L-Phe, L-phenylalanine] | – | approx. 70% | approx. 80%
